Residue numbers refer to the chain shown, from its start.
Assays:
DUBs in HEK293 lysate = assay: Activity-based protein profiling in the lysate with Ub-VS competition; type: binding, human; conditions: 1 µM, 1 h
Procedure: Cells (4 × 10^6) were seeded in 10 cm dishes and grown to 90% confluency. The medium was aspirated, cells were washed with ice-cold PBS, treated with 600 µL ABP lysis buffer (1% (v/v) IGEPAL, 50 mM Tris, 150 mM NaCl, 5% glycerol, pH 8, cOmplete protease inhibitor cocktail), and incubated on ice for 15 min. The lysed cells were scrapped off the dish, cleared by centrifugation, and the protein concentration was determined via a Bradford assay. […] Each compound was diluted to a 2x concentration in PBS buffer from a 10 mM stock in DMSO (final concentration: 1 µM). Then each compound dilution or a DMSO dilution was mixed with cell lysate and incubated for one hour at room temperature. […] Samples were resolved by SDS-PAGE using a 4–12% Bis-Tris gel (Invitrogen, NuPAGE) with MES SDS running buffer for 50 min at 180 V. Fluorescence was read out using the Alexa564 (λex/em 520–545/577–613 nm, for TAMRA) and Alexa680 (λex/em 650–675/700–730 nm, for the PageRuler Prestained NIR Protein Ladder (Thermo Scientific)) channels on a ChemiDoc MP Imaging System (Bio-Rad).

UCHL1 [1] = target: T1, UCHL1 (Homo sapiens, UniProt P09936); assay: kobs/[I] kinetic assay; type: biochemical; conditions: mean ± SD of independent experiments
T1 sequence (P09936 1-223): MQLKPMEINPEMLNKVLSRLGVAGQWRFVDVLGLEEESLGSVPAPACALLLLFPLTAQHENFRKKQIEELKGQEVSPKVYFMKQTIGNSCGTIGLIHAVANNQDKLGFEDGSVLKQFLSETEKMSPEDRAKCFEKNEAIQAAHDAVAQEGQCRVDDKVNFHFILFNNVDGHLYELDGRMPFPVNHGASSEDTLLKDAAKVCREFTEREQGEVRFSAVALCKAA
Procedure: Reactions were performed in 384 well plates as above. Compound (5 µL of a 4x stock in reaction buffer H supplemented with 2.5 mM TCEP; varying final concentrations ranging from 78 nM to 200 µM) and Ub-Rhodamine 110 (5 µL of a 4x stock in buffer H supplemented with 2.5 mM TCEP; final concentration: 50 nM) were mixed in a 1:1 ratio.

UCHL1 in HEK293 cells = system: T2, UCHL1 in HEK293 cells; assay: Cellular Ub-probe (HA-Ub-VS) competition, inhibition of cellular UCHL1; type: cell-based, human
T2 construct: Western blot analysis of endogenous UCHL1 labeled with HA-Ub-VS after treatment of HEK293 cells; endogenous in cells; host or cells: HEK293
Procedure: (§1) Proteins were transferred to a polyvinylidene fluoride (PVDF, only experiments in Fig. 4e and Supplementary Fig. 7e, f) or nitrocellulose (all other experiments) membrane using a Trans-Blot Turbo system (Bio-Rad, 1.3 A, 25 V, 10 min). The membranes were blocked with 5% (m/v) nonfat milk in PBS-T buffer and incubated with indicated primary antibodies (anti-UCHL1, 1:1000, Cell Signaling, D3T2E; anti-PARK7, 1:1000, Cell Signaling, D29E5; anti-Tubulin, 1:4000, Sigma, T6199; anti-Hemagglutinin, 1:1000, BioLegend, 16B12; anti-flag, 1:2000, Sigma, F3165; anti-Ubiquitin, 1:1000, Cell Signaling, P4D1; anti-Ubiquitin, 1:300, Santa Cruz, P4D1, sc-8017; anti-UCHL3, 1:1000, Proteintech, 12384-1-AP) overnight. Then the membranes were incubated with the respective secondary antibody (anti-mouse,1:5000, Sigma, NXA931; anti-rabbit, 1:5000, Sigma, GENA934) coupled to horseradish peroxidase. The chemiluminescent reaction was initiated using a Clarity Western ECL substrate (Bio-Rad) and images were taken on a ChemiDoc MP Imaging System (Bio-Rad).
(§2) The total protein concentration was adjusted to 2 mg/ml by diluting each sample with ABP lysis buffer. A final concentration of 1 µM HA-Ub-VS probe was added, followed by incubation for 30 min at 37 °C. The labeling reaction was quenched by the addition of 4x LDS sample buffer. The samples were separated via SDS-PAGE and further analyzed via western blotting as described above.

UCHL1 [2] = target: T1, UCHL1; assay: Ub-Rhodamine (Ubiquitin rhodamine cleavage) assay; type: biochemical; conditions: 1 h preincubation; mean ± SD of independent experiments; read-out: IC50 (UCHL1)
HEK293 cells = assay: Cell growth and viability assay (confluency, propidium iodide); type: cell-based, human; conditions: 1.3 and 5 µM
Procedure: HEK293 cells (5 × 10^3/well) or U-87 MG cells (5.5 × 10^3/well) were seeded into 96-well dishes. The following day cells were treated with the compounds at varying concentrations and propidium iodide at 20 µg/mL. The plates were immediately transferred to the Incucyte S3. Bright-field and red fluorescent images were automatically captured at 1 or 2 h intervals for 72 h with 10x magnification. The confluency of cells and the number of PI-positive cells was determined using the Incucyte masking program.

UCHL1 [3] = target: T1, UCHL1; assay: Thermal shift assay; type: binding; conditions: Supplementary Fig. 5c
Procedure: Reactions were performed in white 96-well PCR plates (Bio-Rad). UCHL1 was diluted in thermal shift buffer (1x PBS, 5 mM DTT) to a 4x concentration of 4 µM. The protein was then mixed with 4x compound dissolved in thermal shift buffer in a 1:1 ratio. To each well was added 20 µL of DUB-Inhibitor solution, followed by 1 h incubation time. To each well was then added 20 µL 4x SYPRO Orange in thermal shift buffer. After sealing the plates with a transparent film, thermal denaturation (gradient: 20–90 °C; Increment: 0.3 °C, hold for 5 s before read) was performed and monitored by a Bio-Rad Connect cycler.

UCHL3 A11I = target: T3, UCHL3 A11I (Homo sapiens, UniProt P15374, A11I); assay: Ub-Rhodamine (Ubiquitin rhodamine cleavage) assay; type: biochemical; conditions: Supplementary Fig. 10d; 5 mM DTT in buffer H; read-out: IC50 (UCHL3 A11I)
T3 sequence (P15374 1-230 A11I): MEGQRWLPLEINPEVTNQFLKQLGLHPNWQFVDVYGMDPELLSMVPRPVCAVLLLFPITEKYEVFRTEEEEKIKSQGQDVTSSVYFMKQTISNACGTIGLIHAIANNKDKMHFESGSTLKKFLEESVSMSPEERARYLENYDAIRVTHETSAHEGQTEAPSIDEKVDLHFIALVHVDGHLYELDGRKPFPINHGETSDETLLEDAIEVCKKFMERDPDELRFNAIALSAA

UCHL3 A11I+L168F = target: T4, UCHL3 A11I+L168F (Homo sapiens, UniProt P15374, A11I/L168F); assay: Ub-Rhodamine (Ubiquitin rhodamine cleavage) assay; type: biochemical; conditions: Supplementary Fig. 10d; 5 mM DTT in buffer H; read-out: IC50 (UCHL3 A11I+L168F)
T4 sequence (P15374 1-230 A11I/L168F): T3 sequence (P15374 1-230 A11I) with L168F

UCHL3 = target: T5, UCHL3 (Homo sapiens, UniProt P15374); assay: Ub-Rhodamine (Ubiquitin rhodamine cleavage) assay; type: biochemical; conditions: Supplementary Fig. 10d; 5 mM DTT in buffer H; read-out: IC50 (UCHL3 wt)
T5 sequence (P15374 1-230): T3 sequence (P15374 1-230 A11I) with I11A

UCHL3 L168F = target: T6, UCHL3 L168F (Homo sapiens, UniProt P15374, L168F); assay: Ub-Rhodamine (Ubiquitin rhodamine cleavage) assay; type: biochemical; conditions: Supplementary Fig. 10d; 5 mM DTT in buffer H; read-out: IC50 (UCHL3 L168F)
T6 sequence (P15374 1-230 L168F): T3 sequence (P15374 1-230 A11I) with I11A, L168F

UCHL1 in U-87 MG cells = system: T7, UCHL1 in U-87 MG cells; assay: Cellular Ub-probe (HA-Ub-VS) competition, inhibition of cellular UCHL1; type: cell-based, human; conditions: 1 or 24 h
T7 construct: Western blot analysis of endogenous UCHL1 labeled with HA-Ub-VS after treatment of U-87 MG cells; endogenous in cells; host or cells: U-87 MG
Procedure: as §1, §2

SMILES: C#CCCC(=O)NCc1ccc(-c2cccc(Oc3ccnc(C#N)n3)c2)cc1 [CG017]
- DUB engagement (Ub-VS competitive labeling) (DUBs in HEK293 lysate): did not show any covalent-irreversibly bound proteins at all

SMILES: C#CCCC(=O)Nc1cccc(/C=C/c2ccc3c(C#N)c(N)[nH]c3c2)c1 [CG041]
- DUB engagement (Ub-VS competitive labeling) (DUBs in HEK293 lysate): did not show any covalent-irreversibly bound proteins at all

SMILES: C#CCn1cc(-c2ccc(C(=O)N[C@@H]3CCN(C#N)C3)c(F)c2)cn1 [CG50R]
- DUB engagement (Ub-VS competitive labeling) (DUBs in HEK293 lysate): did not show DUB engagement

SMILES: C#CCn1ccc2c(-c3cccc4c3CCN4C(=O)[C@@H]3CCCN3C#N)ccnc21 [CG173]
- kinact/KI (UCHL1 [1]): 597 ± 209 M⁻¹ s⁻¹
- inhibition of cellular UCHL1 (UCHL1 in HEK293 cells; after 1 h (Supplementary Fig. 5f)): very low degree of inhibition
- inhibition of cellular UCHL1 (UCHL1 in HEK293 cells; after 24 h incubation (Supplementary Fig. 5f)): no inhibition of cellular UCHL1 at all
- DUB engagement (Ub-VS competitive labeling) (DUBs in HEK293 lysate): Ubiquitin-probe competitive band of approx. 30 kDa
- IC50 (UCHL1 [2]): 43 ± 19 nM
- apoptosis and growth arrest (HEK293 cells): strong induction of apoptosis and growth arrest
- protein stabilization of UCHL1 compared with GK13S (UCHL1 [3]): reduced protein stabilization

SMILES: NC(=O)CI [IAA, iodoacetamide, reference compound]
- IC50 (UCHL3 A11I): 1.9 ± 0.1 mM
- IC50 (UCHL3 A11I+L168F): 2.2 ± 0.1 mM
- IC50 (UCHL3): 1.7 ± 0.1 mM
- IC50 (UCHL3 L168F): 2 ± 0.1 mM

SMILES: CC(=O)O/N=C1\C(=O)N(Cc2cc(Cl)ccc2Cl)c2ccc(Cl)cc21 [LDN-57444, reference compound]
- inhibition of cellular UCHL1 (UCHL1 in U-87 MG cells): does not lead to inhibition of cellular UCHL1

SMILES: C#CCN1CCN(CCOc2ccc(C(CCC)NC(=O)/C(C#N)=C/c3cccc(Br)n3)cc2)CC1 (stereo not shown) [MS037]
- DUB engagement (Ub-VS competitive labeling) (DUBs in HEK293 lysate): did not show DUB engagement
